A word on the pIC50: it is −log10 of the IC50, conventionally taken in molar units. In general, pEC50 refers to −log10 of the EC50, conventionally taken in molar units.

Six compounds from US11447504B2, “Macrocyclic chlorine substituted indole derivatives” (Bayer Aktiengesellschaft, priority 2017, dated 2022) can be followed below.

Data set [1] has as its target MCL-1 (Homo sapiens (Human), UniProt Q07820, K194A/K197A/R201A). Description: Protein-protein interaction assay MCL-1/Noxa BH3 peptide (MCL-1 Assay, TR-FRET). Particulars: read-out: MCL-1 Assay IC50 (median). The data set is classed as binding. The protocol: The dose-dependent inhibition by the compounds described in this invention of the interaction between MCL-1 and the BH3 domain of Noxa (both human) was determined using a steady state binding competition assay with time-resolved fluorescence energy transfer (TR-FRET) readout. […] The MBP-MCL-1 was purchased from Beryllium (Bedford, Mass., USA). The expression and purification of this protein construct has been described elsewhere (DOI:10.1371/journal.pone.0125010). The Noxa BH3-derived peptide can be obtained from e.g. Biosyntan (Berlin, Germany).
For that, 100-fold concentrated DMSO solutions were prepared by serial dilutions (1:3.4) of a 2 mM stock solution in a clear, 384-well microtiter plate (Greiner Bio-One, Frickenhausen, Germany). From there, 50 nl were transferred in a dark test plate (Greiner Bio-One, Frickenhausen, Germany). […] This was followed by a 10-minute incubation step at 22° C. for pre-equilibration of the putative complex between MBP-MCL-1 and the compounds.
(§1) The mixture was incubated in the dark for one hour at 22° C. and then overnight at 4° C.
(§2) The resulting data (ratio) were normalized, taking 0% inhibition as the mean value of control measurements (usually 32 data points) where all reagents were included. In this case 50 nl DMSO were used instead of compounds. […] IC50 values were determined by regression analysis based on a 4 parameter equation (minimum, maximum, IC50, Hill; Y=Max+(Min−Max)/(1+(X/IC50)^Hill) using the Screener Software (Genedata).
For orientation: In TR-FRET formats the signal depends on donor and acceptor labels being close together.

Data set [2] addresses BCL-XL (Homo sapiens (Human), UniProt Q07817). Description: Protein-protein interaction assay BCL-XL/Bad BH3 peptide (BCL-XL Assay, TR-FRET). It is filed as binding. As to conditions: read-out: BCL-XL Assay IC50 (median). On the procedure: Assay 2 Protein-Protein Interaction Assay: BCL-XL/Bad BH3 Peptide (BCL-XL Assay)
The dose-dependent inhibition by the compounds described in this invention of the interaction between BCL-XL and the BH3 domain of Bad (both human) was determined using a steady state binding competition assay with time-resolved fluorescence energy transfer (TR-FRET) readout.
For that, 100-fold concentrated DMSO solutions were prepared by serial dilutions (1:3.4) of a 2 mM stock solution in a clear, 384-well microtiter plate (Greiner Bio-One, Frickenhausen, Germany). From there, 50 nl were transferred in a dark test plate (Greiner Bio-One, Frickenhausen, Germany). […] This was followed by a 10-minute incubation step at 22° C. for pre-equilibration of the putative complex between His-BCL-XL and the compounds.
The mixture was incubated in the dark for one hour at 22° C. and then overnight at 4° C. The formation of BCL-XL/Bad complexes was determined by measuring the resonance energy transfer of the anti-His- Eu-cryptate antibody to the streptavidin-XL665 present in the reaction.
as §2

Data set [3] addresses BCL-2 (Homo sapiens (Human), UniProt P10415). Description: Protein-protein interaction assay BCL-2/Bad BH3 peptide (BCL-2 Assay, TR-FRET). As to conditions: read-out: BCL-2 Assay IC50 (median). The data set is classed as binding. On the procedure:
The dose-dependent inhibition by the compounds described in this invention of the interaction between BCL-2 and the BH3 domain of Bad (both human) was determined using a steady state binding competition assay with time-resolved fluorescence energy transfer (TR-FRET) readout.
For that, 100-fold concentrated DMSO solutions were prepared by serial dilutions (1:3.4) of a 2 mM stock solution in a clear, 384-well microtiter plate (Greiner Bio-One, Frickenhausen, Germany). From there, 50 nl were transferred in a dark test plate (Greiner Bio-One, Frickenhausen, Germany). […] This was followed by a 10-minute incubation step at 22° C. for pre-equilibration of the putative complex between His-BCL-2 and the compounds.
as §1, §2

Data set [4] has as its system SUDHL5. Description: Induction of caspase-3/7 activity (Assay 4), SUDHL5. It is filed as cell-based. Particulars: SUDHL5 cells. An outline of the steps: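 DLBCL cells treated with compounds for 3 hours at 37° C. Caspase-3/7 activity measured by Caspase-Glo 3/7 luminescence, with medium-only background subtracted.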
Data set [5] deals with SUDHL10. Description: Induction of caspase-3/7 activity (Assay 4), SUDHL10. As to conditions: SUDHL10 cells. The data set is classed as cell-based. An outline of the steps: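 SUDHL10 DLBCL cells treated with compounds for 3 hours at 37 °C in a humidified incubator. Caspase-3/7 activity read with Caspase-Glo 3/7 luminescent reagent. Medium-only background subtracted from all values.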

The test system of data set [6] is SUDHL5. Description: Antiproliferation assay 7, SUDHL5. It is filed as cell-based. As to conditions: SUDHL5 cells, CellTiter-Glo, read-out: Antiproli SUDHL5 IC50 (median). An outline of the steps:
(§3)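 Cells were exposed to compound for 72 hours at 37° C. Viability was measured by CellTiter-Glo luminescence. A day 0 plate read at the start served as the time-zero reference.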

Data set [7] concerns AMO-1. Description: Antiproliferation assay 7, AMO-1. It is filed as cell-based. Particulars: AMO-1 cells, CellTiter-Glo, read-out: Antiproli AMO-1 IC50 median. Put shortly: as §3
Background: Cellular ATP, detected with luciferase, serves as a proxy for viable cell number.

Data set [8] relates to HMC-1-8. Description: Antiproliferation assay 7, HMC-1-8. The data set is classed as cell-based. Particulars: HMC-1-8 cells, CellTiter-Glo, read-out: Antiproli HMC-1-8 IC50 median. Put shortly:
as §3

Data set [9] has as its system SUDHL5. Description: Induction of cytotoxicity (Assay 6), SUDHL5.
Data set [10] concerns SUDHL10. Description: Induction of cytotoxicity (Assay 6), SUDHL10.
Method: Assay 6 Induction of Cytotoxicity Upon Treatment of Cells with Selected Compounds
Therefore, cytotoxicity assays were run in parallel in SUDHL5 and SUDHL10 cells.
The different cell lines were plated in culture medium (RPMI 1640 [GIBCO #22400-089]supplemented with 10% Fetal Bovine Serum) at a density of 3,300 cells in 30 μL/well in a sterile, solid black, flat bottom, polystyrene, TC-treated 384-well microplate (Corning #3571) using Multidrop Combi Reagent Dispenser. As a control, medium without cells was also added to the plate. Cells were incubated in a humidified incubator at 37° C. overnight. […] Rim wells were excluded. The cells were incubated for 5 hours in a humidified incubator at 37° C. After this incubation, 30 μL of CellTiter-Glo® Luminescent Cell Viability reagent (Promega, G7573) was added to each well using the Multidrop Combi Reagent Dispenser, followed by 15 minutes incubation on a shaker at room temperature. Finally, luminescence was read at 0.1 ms, with a gain of 3000 using the PHERAstar FS microplate reader (BMG Labtech).
In data set [11] the test system is MV-4-11. Description: Antiproliferation assay 7, MV-4-11. It is filed as cell-based. As to conditions: Homo sapiens, MV4-11, 72 h, MV-4-11 cells, CellTiter-Glo, read-out: Antiproli MV-4-11 IC50 median. An outline of the steps: as §3
In data set [12] the test system is SK-BR-3. Description: Antiproliferation assay 7, SK-BR-3. The data set is classed as cell-based. Particulars: Homo sapiens; SK-BR-3 cells, 72 hours, CellTiter-Glo; read-out: Antiproli SK-BR-3 IC50 median. On the procedure: Assessment of the Anti-Proliferative Effect of Compounds in Different Cell Lines
The impact of compounds on the proliferation of different cell lines was assessed using the CellTiter-Glo® Luminescent Cell Viability reagent from Promega (G7573).
In parallel, cells were plated in a reference (day 0) plate for time zero determination.
Rim wells were excluded. The cells were incubated for 72 hours in a humidified incubator at 37° C. The day 0 plate was measured by adding 30 μL/well of CTG solution (CellTiter-Glo® Luminescent Cell Viability reagent, Promega G7573) to time zero wells in the reference plate followed by a 10 minutes incubation and luminescence reading at 0.1 ms. using the PHERAstar FS microplate reader (BMG Labtech).
After 72 hours incubation, the treated plates were measured in the same way as the day 0 plate mentioned above.

Where [13] appears, read: Homo sapiens, SU-DHL-5, 3 h, Caspase-Glo 3/7, read-out: Caspase SUDHL5 EC50 (median).
[14] abbreviates: Homo sapiens, SU-DHL10, 3 h, Caspase-Glo 3/7, read-out: Caspase SUDHL10 EC50 (median).
[15] abbreviates: Homo sapiens, SU-DHL-5, 5 h, read-out: Cytotox SUDHL5 IC50 (median), SUDHL5 cells, 5 hours, CellTiter-Glo.
[16] abbreviates: Homo sapiens, SU-DHL10, 5 h, read-out: Cytotox SUDHL10 IC50 (median), SUDHL10 cells, 5 hours, CellTiter-Glo.
The mark [17] stands for this setting: 3 hours, Caspase-Glo 3/7, read-out: Caspase SUDHL5 EC50 (median).
[18] abbreviates: 3 hours, Caspase-Glo 3/7, read-out: Caspase SUDHL10 EC50 (median).
The mark [19] stands for this setting: read-out: Cytotox SUDHL5 IC50 (median), SUDHL5 cells, 5 hours, CellTiter-Glo.
The mark [20] stands for this setting: read-out: Cytotox SUDHL10 IC50 (median), SUDHL10 cells, 5 hours, CellTiter-Glo.

pEC50, pIC50: −log10 of the molar value. Where “and” joins values, the source holds several entries; their conditions need not be identical. Equal values may be shown once. Where a name gives a salt, the structure may show the parent alone. Read-outs that look alike come from different tables or passages of the source.

Sequence of MCL-1 (Q07820 whole entry K194A/K197A/R201A, looked up, the tested form may be a part): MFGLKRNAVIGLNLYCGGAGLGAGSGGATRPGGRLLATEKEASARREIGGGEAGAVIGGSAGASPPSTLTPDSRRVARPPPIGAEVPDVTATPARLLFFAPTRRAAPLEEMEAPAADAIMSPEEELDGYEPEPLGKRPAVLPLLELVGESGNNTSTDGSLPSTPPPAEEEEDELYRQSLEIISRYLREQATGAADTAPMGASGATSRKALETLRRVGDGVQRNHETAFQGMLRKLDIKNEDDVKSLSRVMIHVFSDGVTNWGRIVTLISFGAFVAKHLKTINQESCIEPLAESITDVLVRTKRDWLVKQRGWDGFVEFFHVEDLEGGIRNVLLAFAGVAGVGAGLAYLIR
Sequence of BCL-2 (P10415 other isoform, or with tags, fused parts or gaps): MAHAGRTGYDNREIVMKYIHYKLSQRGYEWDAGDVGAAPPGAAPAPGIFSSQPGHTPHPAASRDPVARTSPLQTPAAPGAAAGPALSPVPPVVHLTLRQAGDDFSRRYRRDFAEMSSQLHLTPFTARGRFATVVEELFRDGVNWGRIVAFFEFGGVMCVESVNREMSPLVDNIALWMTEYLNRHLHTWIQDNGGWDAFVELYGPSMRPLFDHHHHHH
Sequence of BCL-XL (Q07817 other isoform, or with tags, fused parts or gaps): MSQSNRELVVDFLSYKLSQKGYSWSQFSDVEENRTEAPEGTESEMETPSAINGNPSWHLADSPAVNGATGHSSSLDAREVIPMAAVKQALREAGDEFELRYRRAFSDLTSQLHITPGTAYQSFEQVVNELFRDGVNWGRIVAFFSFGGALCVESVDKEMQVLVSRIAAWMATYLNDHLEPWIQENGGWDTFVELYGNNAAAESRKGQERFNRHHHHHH

As to `CCc1c2c(nn1C)N(C)CCCCCn1c(C(=O)O)c(CCCOc3cccc4cc(F)ccc34)c3ccc(Cl)c-2c31` (racemic) [Example 77, (rac)-4-chloro-3-ethyl-7-{3-[(6-fluoronaphthalen-1-yl)oxy]propyl}-2,15-dimethyl-10,11,12,13,14,15-hexahydro-2H-pyrazolo[4′,3′:4,5][1,6]diazacycloundecino[3,2,1-hi]indole-8-carboxylic Acid], the pIC50 was 8.96 in data set [1]; less than 4.70 in data set [2]; 4.77 in data set [3]; 6.01 in data set [6] (Homo sapiens, SU-DHL-5, 72 h); 6.28 in [7] (Homo sapiens, AMO1, 72 h); 5.48 in data set [8] (72 h). Besides, the pIC50 in data set [9] (setting [15]) is 6.35; in data set [10] (setting [16]), 6.06. The pEC50 was 6.32 in data set [4] (setting [13]) and 6.31 in [5] (setting [14]).

`CCc1c2c(nn1C)COC/C=C\Cn1c(C(=O)O)c(CCCOc3cccc4ccccc34)c3ccc(Cl)c-2c31` (racemic) [Example 18, (rac)-(11 Z)-4-chloro-3-ethyl-2-methyl-7-[3-(naphthalen-1-yloxy)propyl]-2,10,13,15-tetrahydropyrazolo[4′,3′:9,10][1,6]oxazacycloundecino[8,7,6-hi]indole-8-carboxylic Acid]: the pIC50 in data set [1] was 8.89; in data set [2], less than 4.70; in data set [3], < 4.70 and 4.73 and 4.69; in data set [6] (Homo sapiens, SU-DHL-5, 72 h), 5.85; in data set [11], 5.33; in data set [9] (setting [15]), 5.92. The negative logarithm of the IC50 (pIC50) in data set [10] (setting [16]) was 5.89. For the same compound, the pEC50 was 5.96 in data set [4] (setting [13]) and 5.89 in [5] (setting [14]).

With `Cc1c2c(nn1C)N(C)CCCCCn1c(C(=O)O)c(CCCOc3cccc4ccccc34)c3ccc(Cl)c-2c31` (single isomer, unassigned) [Example 73, (−)-4-chloro-2,3,15-trimethyl-7-{3-[(naphthalen-1-yl)oxy]propyl}-10,11,12,13,14,15-hexahydro-2H-pyrazolo[4′,3′:4,5][1,6]diazacycloundecino[3,2,1-hi]indole-8-carboxylic acid], the pIC50 in [1] is 7.80; in data set [2] it was less than 4.70; in data set [3], less than 4.70; in data set [7] (72 hours), 4.74; in data set [8] (72 hours) it was 4.62; in [9] (setting [19]) it was 4.85. Besides, the pIC50 in [10] (setting [20]) was 4.59. Besides, the figures for the pEC50 in data set [4] (setting [17]) and in data set [5] (setting [18]) were 4.82 and 4.74, respectively.

In the case of `CCc1c2c(nn1C)N(C)CCCCCn1c(C(=O)O)c(CCCOc3cccc4cc(F)ccc34)c3ccc(Cl)c-2c31` (single isomer, unassigned; enantiomer 2) [Example 79, 4-chloro-3-ethyl-7-{3-[(6-fluoronaphthalen-1-yl)oxy]propyl}-2,15-dimethyl-10,11,12,13,14,15-hexahydro-2H-pyrazolo[4′,3′:4,5][1,6]diazacycloundecino[3,2,1-hi]indole-8-carboxylic acid N-ethylethanamine Salt—Enantiomer 2], the pIC50 in [2] was less than 4.70; in [3], less than 4.70; in [6] (72 hours), 5.42; in [7] (72 hours), 5.13; in data set [8] (72 hours), 4.85; in data set [9] (setting [19]), 5.66. Further, the negative logarithm of the IC50 (pIC50) in data set [10] (setting [20]) was 5.29. Moreover, the negative-log EC50 (pEC50) is 5.55 in data set [4] (setting [17]) and 5.27 in [5] (setting [18]).

As to `Cc1c2c(nn1C)N(C)CCCCCn1c(C(=O)O)c(CCCOc3cccc4cc(F)ccc34)c3ccc(Cl)c-2c31` [Example 76, (−)-4-chloro-7-{3-[(6-fluoronaphthalen-1-yl)oxy]propyl}-2,3,15-trimethyl-10,11,12,13,14,15-hexahydro-2H-pyrazolo[4′,3′:4,5][1,6]diazacycloundecino[3,2,1-hi]indole-8-carboxylic acid-N-ethylethanamine salt], the pIC50 is less than 4.70 in data set [2]; less than 4.70 in data set [3]; 5.34 in [6] (72 hours); 5.07 in data set [7] (72 hours); 4.89 in [8] (72 hours); 5.52 in data set [9] (setting [19]). Further, the pIC50 in data set [10] (setting [20]) is 5.15. Further, the values for the pEC50 in data set [4] (setting [17]) and in [5] (setting [18]) were 5.49 and 5.21, respectively.

With `CCc1c2c(nn1C)COCCCCn1c(C(=O)O)c(CCCOc3cccc4ccccc34)c3ccc(Cl)c-2c31` (racemic) [Example 19, (rac)-4-chloro-3-ethyl-2-methyl-7-[3-(naphthalen-1-yloxy)propyl]-2,10,11,12,13,15-hexahydropyrazolo[4′,3′:9,10][1,6]oxazacycloundecino[8,7,6-hi]indole-8-carboxylic Acid], the negative-log EC50 (pEC50) is 6.47 in data set [4] (setting [13]) and 6.49 in [5] (setting [14]). Moreover, the negative logarithm of the IC50 (pIC50) was 6.24 in [6] (Homo sapiens, SU-DHL-5, 72 h); 5.78 in data set [11]; 5.49 in data set [12]; 6.32 in data set [9] (setting [15]); 6.36 in data set [10] (setting [16]).
